According to ChEMBL document CHEMBL1143129:

Legend:
[1] = molecular target: Carbonic anhydrase 13 (Mus musculus) (UniProt Q9D6N1); test: Inhibition of mouse recombinant full length carbonic hydrase 13 by stopped-flow CO2 hydration assay
[2] = molecular target: Carbonic anhydrase 3 (Homo sapiens) (UniProt P07451)
Carbonic anhydrase 3 (Homo sapiens), sequence (P07451 whole entry): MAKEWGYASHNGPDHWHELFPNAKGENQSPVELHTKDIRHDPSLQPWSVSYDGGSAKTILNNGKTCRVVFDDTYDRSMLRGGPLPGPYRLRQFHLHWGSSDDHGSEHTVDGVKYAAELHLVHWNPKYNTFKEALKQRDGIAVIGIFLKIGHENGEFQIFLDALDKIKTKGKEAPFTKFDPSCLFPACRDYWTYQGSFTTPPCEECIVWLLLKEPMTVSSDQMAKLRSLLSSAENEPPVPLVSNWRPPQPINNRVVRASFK
Description: Inhibition of human recombinant full length carbonic hydrase 3 by stopped-flow CO2 hydration assay

Carbonic anhydrase 13 (Mus musculus), sequence (Q9D6N1 whole entry, looked up): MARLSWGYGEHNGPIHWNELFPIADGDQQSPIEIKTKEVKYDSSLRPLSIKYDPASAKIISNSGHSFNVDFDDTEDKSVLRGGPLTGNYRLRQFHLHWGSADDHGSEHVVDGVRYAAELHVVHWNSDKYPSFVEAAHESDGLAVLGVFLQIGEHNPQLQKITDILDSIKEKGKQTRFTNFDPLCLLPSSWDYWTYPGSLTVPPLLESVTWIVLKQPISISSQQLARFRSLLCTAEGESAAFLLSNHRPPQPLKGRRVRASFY

Row | Ki [1] | Kinact [2] | SMILES
1 | 20 nM | 3.6 10^5nM | CN(C)c1nnc(CS(N)(=O)=O)s1
2 | – | 7 10^5nM | CC(=O)/N=c1/sc(S(N)(=O)=O)nn1C
